Measurements as given in patent publication US20160046604A1, “HETEROARYL SUBSTITUTED INDAZOLES” (BAYER PHARMA AKTIENGESELLSCHAFT, priority 2013, published 2016).
pIC50: −log10 of the molar value. Where two headings read alike, the source gives them in different places.

What was measured:
[1] = target: T1, catalytic domain of human Bub1 (amino acids 704-1085) (Homo sapiens, UniProt O43683); assay: Bub1 kinase assay (TR-FRET); assay type: biochemical
T1 construct: catalytic domain of human Bub1 (amino acids 704-1085); His6 (N); made in house; host or cells: Hi5 insect cells
T1 sequence (O43683 704-1085): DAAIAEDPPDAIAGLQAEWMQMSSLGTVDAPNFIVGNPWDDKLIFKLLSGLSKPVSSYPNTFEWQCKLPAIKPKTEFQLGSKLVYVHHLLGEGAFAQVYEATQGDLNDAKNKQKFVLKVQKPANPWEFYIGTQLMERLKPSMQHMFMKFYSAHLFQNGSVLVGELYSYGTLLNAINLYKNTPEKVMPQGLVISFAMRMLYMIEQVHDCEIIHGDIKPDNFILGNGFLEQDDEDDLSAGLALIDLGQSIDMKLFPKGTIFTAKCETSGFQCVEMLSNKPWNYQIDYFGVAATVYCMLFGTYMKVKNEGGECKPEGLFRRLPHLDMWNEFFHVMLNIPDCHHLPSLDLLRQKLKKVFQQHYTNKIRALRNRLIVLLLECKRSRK
Method: To this end, 100-fold concentrated compound solutions (in DMSO) were previously prepared by serial dilution (1:3.4) of 2 mM stocks in a clear low volume 384-well source microtiter plate (Greiner Bio-One, Frickenhausen, Germany), from which 50 nL of compounds were transferred into a black low volume test microtiter plate from the same supplier. […] The resulting mixture (5 μL final volume) was incubated at 22° C. during 60 min., and the reaction was stopped by the addition of 5 μL of an aqueous EDTA-solution (50 mM EDTA, in 100 mM HEPES pH 7.5 and 0.2% (w/v) bovine serum albumin) which also contained the TR-FRET detection reagents (0.2 μM streptavidin-XL665 [Cisbio Bioassays, Codolet, France] and 1 nM anti-phoshoSerine antibody [Merck Millipore, cat. #35-001] and 0.4 nM LANCE EU-W1024 labeled anti-mouse IgG antibody [Perkin-Elmer, product no. AD0077, alternatively a Terbium-cryptate-labeled anti-mouse IgG antibody from Cisbio Bioassays can be used]). The stopped reaction mixture was further incubated 1 h at 22° C. in order to allow the formation of complexes between peptides and detection reagents. Subsequently, the amount of product was evaluated by measurement of the resonance energy transfer from the Eu-chelate-antibody complex recognizing the Phosphoserine residue to the streptavidin-XL665 bound to the biotin moiety of the peptide. […] IC50 values were calculated by fitting the normalized inhibition data to a 4-parameter logistic equation (Minimum, Maximum, IC50, Hill; Y=Max+(Min−Max)/(1+(X/IC50)Hill)).

[2] = system: HeLa human cervical tumor cells; assay: Proliferation assay (HeLa cell line); details: 96 h, read-out: Biological Assay 2: Proliferation assay (HeLa cell line) median IC50;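 also: crystal violet staining, absorbance at 595 nm, 0.001–10 µM test range, 4-day exposure, 0% is cell number at dosing and 100% untreated growth, IC50 from 4-parameter fit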
Method: Cultivated HeLa human cervical tumor cells (cells were ordered from ATCC CCL-2) were plated at a density of 3000 cells/well in a 96-well multititer plates in 200 microL DMEM/HAMS F12 culture medium (Biochrom F4815) supplemented with 10% fetal calf serum. After 24 hours, the cells of one plate (zero-point plate) were stained with crystal violet (see below), while the medium of the other plates was replaced by fresh culture medium (200 microL) containing the test substances in various concentrations (0 microM, as well as in the range of 0.001-10 microM; the final concentration of the solvent dimethyl sulfoxide was 0.5%). The cells were incubated for 4 days in the presence of test substances. Cell proliferation was determined by staining the cells with crystal violet: the cells were fixed by adding 20 microL/measuring point of an 11% glutaric aldehyde solution for 15 minutes at room temperature. After three washing cycles of the fixed cells with water, the plates were dried at room temperature. The cells were stained by adding 100 microL/measuring point of a 0.1% crystal violet solution (pH 3.0). After three washing cycles of the stained cells with water, the plates were dried at room temperature. The dye was dissolved by adding 100 microL/measuring point of a 10% acetic acid solution. Absorption was determined by photometry at a wavelength of 595 nm. The change of cell number, in percent, was calculated by normalization of the measured values to the absorption values of the zero-point plate (=0%) and the absorption of the untreated (0 microM) cells (=100%). The IC50 values were determined by means of a 4 parameter fit.

[3] = TR-FRET, recombinant catalytic domain of human Bub1, ATP 10 μM, peptide substrate 1 μM, 60 min at 22° C., read-out: Biological Assay 1: Bub1 kinase assay median IC50

| pIC50 [1] | pIC50 [2] | pIC50 [1, 3] | SMILES |
| --- | --- | --- | --- |
| 6.48 | 5.40 | – | Cc1noc(C)c1Cn1nc(-c2nc(Nc3ccncc3)cc(Nc3ccncc3)n2)c2ccccc21 [Example 2-3-4, 2-{1-[(3,5-dimethyl-1,2-oxazol-4-yl)methyl]-1H-indazol-3-yl}-N,N′-di(pyridin-4-yl)pyrimidine-4,6-diamine] |
| – | < 5.00 | 6.27 | CNC(=O)c1nc(Cn2nc(-c3ncc(OC)c(Nc4ccncc4)n3)c3ccccc32)no1 [Example 2-2-5, 3-({3-[5-methoxy-4-(pyridin-4-ylamino)pyrimidin-2-yl]-1H-indazol-1-yl}methyl)-N-methyl-1,2,4-oxadiazole-5-carboxamide] |
| 8.16 | 5.41 | – | COc1cnc(-c2nn(Cc3cc(C(C)C)no3)c3ccccc23)nc1Nc1ccncc1C(N)=O [Example 2-2-9, 4-[(2-{1-[(3-isopropyl-1,2-oxazol-5-yl)methyl]-1H-indazol-3-yl}-5-methoxypyrimidin-4-yl)amino]nicotinamide] |
| 7.24 | 5.15 | – | COc1cnc(-c2nn(Cc3ccc(C(F)(F)F)nc3C)c3ccccc23)nc1Nc1ccncc1 [Example 2-1-5, 5-methoxy-2-(1-{[2-methyl-6-(trifluoromethyl)pyridin-3-yl]methyl}-1H-indazol-3-yl)-N-(pyridin-4-yl)pyrimidin-4-amine] |
| – | < 5.00 | 6.21 | COc1cnc(-c2nn(Cc3c(C(F)(F)F)nnn3C)c3ccccc23)nc1Nc1ccncc1 [Example 2-1-8, 5-methoxy-2-(1-{[1-methyl-4-(trifluoromethyl)-1H-1,2,3-triazol-5-yl]methyl}-1H-indazol-3-yl)-N-(pyridin-4-yl)pyrimidin-4-amine] |
| 7.66 | < 5.00 | – | COc1cnc(-c2nn(Cc3nnc(C)o3)c3ccccc23)nc1Nc1ccncc1C(N)=O [Example 2-2-13, 4-[(5-methoxy-2-{1-[(5-methyl-1,3,4-oxadiazol-2-yl)methyl]-1H-indazol-3-yl}pyrimidin-4-yl)amino]nicotinamide] |
| – | < 5.00 | 7.38 | COc1cnc(-c2nn(Cc3cnn(C)c3C)c3ccccc23)nc1Nc1ccncc1 [Example 2-1-4, 2-{1-[(1,5-dimethyl-1H-pyrazol-4-yl)methyl]-1H-indazol-3-yl}-5-methoxy-N-(pyridin-4-yl)pyrimidin-4-amine] |
| 7.15 | < 5.00 | – | CCOC(=O)c1cnccc1Nc1cc(N)nc(-c2nn(Cc3c(C)noc3C)c3ccccc23)n1 [Example 2-3-1, ethyl 4-[(6-amino-2-{1-[(3,5-dimethyl-1,2-oxazol-4-yl)methyl]-1H-indazol-3-yl}pyrimidin-4-yl)amino]pyridine-3-carboxylate] |
| 5.51 | < 5.00 | – | COc1cnc(-c2nn(Cc3cc(=O)[nH]c(=O)[nH]3)c3ccccc23)nc1Nc1ccncc1 [Example 2-2-7, 6-({3-[5-methoxy-4-(pyridin-4-ylamino)pyrimidin-2-yl]-1H-indazol-1-yl}methyl)pyrimidine-2,4(1H,3H)-dione] |
| 8.05 | < 5.00 | – | COc1cnc(-c2nn(Cc3ncc(F)cc3F)c3ccccc23)nc1Nc1ccncc1 [Example 2-1-2, 2-{1-[(3,5-difluoropyridin-2-yl)methyl]-1H-indazol-3-yl}-5-methoxy-N-(pyridin-4-yl)pyrimidin-4-amine] |
| – | – | 5.80 | COc1cnc(-c2nn(Cc3cn4cccnc4n3)c3ccccc23)nc1Nc1ccncc1 [Example 2-2-6, 2-[1-(imidazo[1,2-a]pyrimidin-2-ylmethyl)-1H-indazol-3-yl]-5-methoxy-N-(pyridin-4-yl)pyrimidin-4-amine] |
| 8.32 | < 5.00 | – | COCc1noc(Cn2nc(-c3ncc(OC)c(Nc4ccncc4C(N)=O)n3)c3ccccc32)n1 [Example 2-2-10, 4-{[5-methoxy-2-(1-{[3-(methoxymethyl)-1,2,4-oxadiazol-5-yl]methyl}-1H-indazol-3-yl)pyrimidin-4-yl]amino}nicotinamide] |
| 8.10 | 5.06 | – | COc1cnc(-c2nn(Cc3cscn3)c3ccccc23)nc1Nc1ccncc1C(N)=O [Example 2-2-11, 4-({5-methoxy-2-[1-(1,3-thiazol-4-ylmethyl)-1H-indazol-3-yl]pyrimidin-4-yl}amino)nicotinamide] |
| – | – | 6.10 | COc1cnc(-c2nn(Cc3c(C)nnn3C(F)F)c3ccccc23)nc1N(Cc1c(C)nnn1C(F)F)c1ccncc1 [Example 2-1-9, N-{[1-(difluoromethyl)-4-methyl-1H-1,2,3-triazol-5-yl]methyl}-2-(1-{[1-(difluoromethyl)-4-methyl-1H-1,2,3-triazol-5-yl]methyl}-1H-indazol-3-yl)-5-methoxy-N-(pyridin-4-yl)pyrimidin-4-amine] |
| – | – | 6.82 | COc1cnc(-c2nn(Cc3c(C)nnn3C(F)F)c3ccccc23)nc1Nc1ccncc1 [Example 2-1-6, 2-(1-{[1-(difluoromethyl)-4-methyl-1H-1,2,3-triazol-5-yl]methyl}-1H-indazol-3-yl)-5-methoxy-N-(pyridin-4-yl)pyrimidin-4-amine] |
| 6.82 | < 5.00 | – | Cc1noc(C)c1Cn1nc(-c2nc(Nc3ccncn3)cc(Nc3ccncn3)n2)c2ccccc21 [Example 2-3-5, 2-{1-[(3,5-dimethyl-1,2-oxazol-4-yl)methyl]-1H-indazol-3-yl}-N,N′-di(pyrimidin-4-yl)pyrimidine-4,6-diamine] |
| 5.49 | – | – | COc1cnc(-c2nn(Cc3c(C(F)(F)F)nn(C)c3C(F)F)c3ccccc23)nc1Nc1ccncc1 [Example 2-1-10, 2-(1-{[5-(difluoromethyl)-1-methyl-3-(trifluoromethyl)-1H-pyrazol-4-yl]methyl}-1H-indazol-3-yl)-5-methoxy-N-(pyridin-4-yl)pyrimidin-4-amine] |
| – | < 5.00 | 7.77 | CNC(=O)c1cnccc1Nc1nc(-c2nn(Cc3nc(COC)no3)c3ccccc23)ncc1OC [Example 2-2-8, 4-{[5-methoxy-2-(1-{[3-(methoxymethyl)-1,2,4-oxadiazol-5-yl]methyl}-1H-indazol-3-yl)pyrimidin-4-yl]amino}-N-methylnicotinamide] |
| – | < 5.00 | 6.06 | COc1cnc(-c2nn(Cc3nnc(C)o3)c3ccccc23)nc1Nc1ccncc1 [Example 2-2-14, 5-methoxy-2-{1-[(5-methyl-1,3,4-oxadiazol-2-yl)methyl]-1H-indazol-3-yl}-N-(pyridin-4-yl)pyrimidin-4-amine] |
| 6.35 | – | – | COc1cnc(-c2nn(Cc3c(C(F)F)nn(C)c3OCC(F)(F)F)c3ccccc23)nc1Nc1ccncc1 [Example 2-1-7, 2-(1-{[3-(difluoromethyl)-1-methyl-5-(2,2,2-trifluoroethoxy)-1H-pyrazol-4-yl]methyl}-1H-indazol-3-yl)-5-methoxy-N-(pyridin-4-yl)pyrimidin-4-amine] |
| 7.00 | – | – | CNC(=O)c1cnccc1Nc1nc(-c2nn(Cc3nnc(C)o3)c3ccccc23)ncc1OC [Example 2-2-15, 4-[(5-methoxy-2-{1-[(5-methyl-1,3,4-oxadiazol-2-yl)methyl]-1H-indazol-3-yl}pyrimidin-4-yl)amino]-N-methylnicotinamide] |
| 7.47 | – | – | Cc1noc(C)c1Cn1nc(-c2nc(N)cc(Nc3ccncc3C(=O)NCCO)n2)c2ccccc21 [Example 2-4-1, 4-[(6-amino-2-{1-[(3,5-dimethyl-1,2-oxazol-4-yl)methyl]-1H-indazol-3-yl}pyrimidin-4-yl)amino]-N-(2-hydroxyethyl)nicotinamide] |
